Drawing on US10477864B2, “Microbiocidal quinoline (thio)carboxamide derivatives” (priority 2016, dated 2019), this text covers inhibition of growth, pest or weed control and melting point for 20 compounds.

Series [1] relates to Botryotinia fuckeliana (Botrytis cinerea). Briefly: Botryotinia fuckeliana (Botrytis cinerea) / liquid culture (gray mould). The format is cell-based. The following applies: 72 h, read-out: control of Botryotinia fuckeliana.
Series [2] has as its system Glomerella lagenarium (Colletotrichum lagenarium). Briefly: Glomerella lagenarium (Colletotrichum lagenarium) / liquid culture (anthracnose). The format is cell-based. The following applies: Colletotrichum orbiculare; read-out: control of Glomerella lagenarium.
The subject of the next series is Gaeumannomyces graminis. The series can be described thus: Gaeumannomyces graminis / liquid culture (take-all of cereals). The class given is cell-based. The following applies: read-out: control of Gaeumannomyces graminis.
Series [3] concerns Fusarium culmorum. Briefly: microbe, parasite or virus in culture. The format is cell-based. To be noted: read-out: control of Fusarium culmorum.
Series [4] concerns Magnaporthe grisea (Pyricularia oryzae). The series can be described thus: microbe, parasite or virus in culture. The class given is cell-based. To be noted: 72 h, read-out: control of Magnaporthe grisea.
In series [5] the test system is Monographella nivalis (Microdochium nivale). The series can be described thus: Monographella nivalis (Microdochium nivale) / liquid culture (foot rot cereals). To be noted: 96 h, read-out: control of Monographella nivalis. The class given is cell-based.
In series [6] the test system is Fusarium culmorum. The series can be described thus: whole plant or invertebrate. The format is in vivo. The following applies: in Triticum aestivum, read-out: control of Fusarium culmorum.

Molecules are shown by their SMILES.

On to `CC(C)C[C@](C)(Cc1ccccc1Cl)NC(=O)c1cnc2c(F)cccc2c1` [Compound F-7, N-[(1R)-1-[(2-chlorophenyl)methyl]-1,3-dimethyl-butyl]-8-fluoro-quinoline-3-carboxamide], for which the inhibition of growth at 200 ppm (in series [1]; in series [2]; in the series with Gaeumannomyces graminis; in the series on Fusarium culmorum [3]) was ≥ 80% throughout.

On to `CC(C)CC(C)(NC(=O)c1cnc2ccccc2c1)C(F)(F)c1ccccc1` (stereo not drawn) [Compound E-59, N-[1-[difluoro(phenyl)methyl]-1,3-dimethyl-butyl]quinoline-3-carboxamide], for which the inhibition of growth at 200 ppm (in series [4]; in series [5]; in series [1]; with Fusarium culmorum [3]) was ≥ 80% in each case. The pest or weed control at 200 ppm in the series on Fusarium culmorum [6] is ≥ 80%.

Turning to `CC(C#N)(Cc1ccc(Cl)cc1)NC(=O)c1cnc2c(F)cccc2c1` (stereo not drawn) [Compound E-7, N-[2-(4-chlorophenyl)-1-cyano-1-methyl-ethyl]-8-fluoro-quinoline-3-carboxamide], the inhibition of growth at 200 ppm (in series [1]; in the series with Gaeumannomyces graminis; in the series with Fusarium culmorum [3]) was ≥ 80% in each case.

Consider `CC(F)(F)C[C@](C)(Cc1ccccc1)NC(=O)c1cnc2c(F)cccc2c1` [Compound F-39, N-[(1S)-1-benzyl-3,3-difluoro-1-methyl-butyl]-8-fluoro-quinoline-3-carboxamide], for which the inhibition of growth at 200 ppm (in series [4]; in series [5]; in series [1]; in series [2]; in the series with Fusarium culmorum [3]) was ≥ 80% in each case. Moreover, in the series on Fusarium culmorum [6], the pest or weed control at 200 ppm was ≥ 80%.

With `CC(C#N)(Cc1ccc(F)cc1F)NC(=O)c1cnc2c(F)cccc2c1` (stereo not drawn) [Compound E-8, N-[1-cyano-2-(2,4-difluorophenyl)-1-methyl-ethyl]-8-fluoro-quinoline-3-carboxamide], the inhibition of growth at 200 ppm (in series [1]; in the series with Gaeumannomyces graminis; in the series on Fusarium culmorum [3]) was ≥ 80% in each case.

As for `CC(C)CC(C)(NC(=O)c1cnc2c(F)cccc2c1)C(F)(F)c1ccccc1` (stereo not drawn) [Compound E-54, N-[1-[difluoro(phenyl)methyl]-1,3-dimethyl-butyl]-8-fluoro-quinoline-3-carboxamide], the inhibition of growth at 200 ppm (in series [4]; in series [5]; in series [1]; in series [2]; in the series with Fusarium culmorum [3]) was ≥ 80% each time.

For the compound `CC(C)(F)CC(C)(Cc1ccccc1)NC(=O)c1cnc2ccccc2c1` (stereo not drawn) [Compound E-57, N-(1-benzyl-3-fluoro-1,3-dimethyl-butyl)quinoline-3-carboxamide], the inhibition of growth at 200 ppm (in series [4]; in series [5]; in series [1]; in series [2]; with Fusarium culmorum [3]) was ≥ 80% throughout. Also, the pest or weed control at 200 ppm in the series with Fusarium culmorum [6] was ≥ 80%.

For `CC(C)(F)CC(C)(Cc1ccccc1)NC(=O)c1cnc2c(F)cccc2c1` (stereo not drawn) [Compound E-56, N-(1-benzyl-3-fluoro-1,3-dimethyl-butyl)-8-fluoro-quinoline-3-carboxamide], the inhibition of growth at 200 ppm (in series [4]; in series [5]; in series [1]; in series [2]; in the series with Fusarium culmorum [3]) was ≥ 80% each time. Moreover, the pest or weed control at 200 ppm in the series with Fusarium culmorum [6] was ≥ 80%.

As to `Cc1cccc(CC(C)(CC(C)C)NC(=O)c2cnc3c(F)cccc3c2)c1` (stereo not drawn) [Compound E-33, N-[1,3-dimethyl-1-(m-tolylmethyl)butyl]-8-fluoro-quinoline-3-carboxamide], the melting point is 94 to 96 °C. For the same compound, in series [4], the inhibition of growth at 200 ppm was ≥ 80%. Moreover, the inhibition of growth at 200 ppm in series [5] is ≥ 80%. The inhibition of growth at 200 ppm in series [1] was ≥ 80%. Besides, the inhibition of growth at 200 ppm in series [2] was ≥ 80%. In addition, the inhibition of growth at 200 ppm with Fusarium culmorum [3] is ≥ 80%.

In the case of `CC(Cc1ccccc1)(CC1CC1)NC(=O)c1cnc2c(F)cccc2c1` (stereo not drawn) [Compound E-49, N-(1-benzyl-2-cyclopropyl-1-methyl-ethyl)-8-fluoro-quinoline-3-carboxamide], the inhibition of growth at 200 ppm (in series [4]; in series [5]; in series [1]; in series [2]; in the series with Fusarium culmorum [3]) was ≥ 80% in each case. For the same compound, in the series on Fusarium culmorum [6], the pest or weed control at 200 ppm was ≥ 80%.

Turning to `CC(C)C[C@@](C)(Cc1ccccc1Cl)NC(=O)c1cnc2c(F)cccc2c1` [Compound F-8, N-[(1S)-1-[(2-chlorophenyl)methyl]-1,3-dimethyl-butyl]-8-fluoro-quinoline-3-carboxamide], the inhibition of growth at 200 ppm (in series [5]; in series [1]; in series [2]; with Gaeumannomyces graminis; with Fusarium culmorum [3]) was ≥ 80% each time.

In turn, `CC(Cc1ccccc1)(CC(F)(F)F)NC(=O)c1cnc2c(Cl)cccc2c1` (stereo not drawn) [Compound E-60, N-(1-benzyl-3,3,3-trifluoro-1-methyl-propyl)-8-chloro-quinoline-3-carboxamide] showed a melting point of 141 to 144 °C. Further, the inhibition of growth at 200 ppm in series [4] is ≥ 80%. In series [5], the inhibition of growth at 200 ppm was ≥ 80%. In addition, the inhibition of growth at 200 ppm in series [1] is ≥ 80%. Besides, the inhibition of growth at 200 ppm in series [2] is ≥ 80%. The pest or weed control at 200 ppm in the series on Fusarium culmorum [6] is ≥ 80%. Moreover, in the series on Fusarium culmorum [3], the inhibition of growth at 200 ppm is ≥ 80%.

The compound `CC(C)(C)C(Cc1ccccc1)NC(=O)c1cnc2c(F)cccc2c1` (stereo not drawn) [Compound E-12, N-(1-benzyl-2,2-dimethyl-propyl)-8-fluoro-quinoline-3-carboxamide] displayed a melting point of 163 to 164 °C. The inhibition of growth at 200 ppm in series [4] was ≥ 80%. The inhibition of growth at 200 ppm in series [5] was ≥ 80%. In series [1], the inhibition of growth at 200 ppm was ≥ 80%. The inhibition of growth at 200 ppm in series [2] is ≥ 80%. In the series on Fusarium culmorum [6], the pest or weed control at 200 ppm is ≥ 80%. The inhibition of growth at 200 ppm with Fusarium culmorum [3] is ≥ 80%.

Take `O=C(NC(Cc1ccccc1)CC(F)(F)F)c1cnc2c(F)cccc2c1` (stereo not drawn) [Compound E-30, N-(1-benzyl-3,3,3-trifluoro-propyl)-8-fluoro-quinoline-3-carboxamide]: the melting point was 140 to 142 °C. Also, the inhibition of growth at 200 ppm in series [4] is ≥ 80%. The inhibition of growth at 200 ppm in series [5] was ≥ 80%. Also, in series [1], the inhibition of growth at 200 ppm is ≥ 80%. Besides, the inhibition of growth at 200 ppm in series [2] is ≥ 80%. Besides, in the series on Fusarium culmorum [6], the pest or weed control at 200 ppm is ≥ 80%. Besides, the inhibition of growth at 200 ppm in the series on Fusarium culmorum [3] was ≥ 80%.

In turn, `CC(Cc1ccccc1)(CC(F)(F)F)NC(=O)c1cnc2c(C#N)cccc2c1` (stereo not drawn) [Compound E-62, N-(1-benzyl-3,3,3-trifluoro-1-methyl-propyl)-8-cyano-quinoline-3-carboxamide] had a melting point of 175 to 179 °C. Besides, in series [4], the inhibition of growth at 200 ppm is ≥ 80%. In series [1], the inhibition of growth at 200 ppm is ≥ 80%. The inhibition of growth at 200 ppm in series [2] is ≥ 80%. In the series on Fusarium culmorum [6], the pest or weed control at 200 ppm is ≥ 80%. Besides, the inhibition of growth at 200 ppm in the series on Fusarium culmorum [3] is ≥ 80%.

Turning to `CC(C)(C)C[C@](C)(Cc1ccccc1)NC(=O)c1cnc2c(F)cccc2c1` [Compound F-17, N-[(1R)-1-benzyl-1,3,3-trimethyl-butyl]-8-fluoro-quinoline-3-carboxamide], the inhibition of growth at 200 ppm (in series [1]; in series [2]; in the series on Gaeumannomyces graminis; in the series with Fusarium culmorum [3]) was ≥ 80% throughout. For the same compound, the pest or weed control at 200 ppm in the series on Fusarium culmorum [6] was ≥ 80%.

Turning to `CC(C)C(C)(Cc1ccccc1)NC(=O)c1cnc2c(F)cccc2c1` (stereo not drawn) [Compound E-5, N-(1-benzyl-1,2-dimethyl-propyl)-8-fluoro-quinoline-3-carboxamide], the inhibition of growth at 200 ppm (in series [4]; in series [5]; in series [1]; in series [2]; in the series on Fusarium culmorum [3]) was ≥ 80% in each case. Moreover, the pest or weed control at 200 ppm in the series with Fusarium culmorum [6] was ≥ 80%.

`C=CC[C@](C)(Cc1ccccc1)NC(=O)c1cnc2c(F)cccc2c1` [Compound F-16, N-[(1R)-1-benzyl-1-methyl-but-3-enyl]-8-fluoro-quinoline-3-carboxamide]: the inhibition of growth at 200 ppm (in series [1]; in series [2]; with Gaeumannomyces graminis; with Fusarium culmorum [3]) was ≥ 80% throughout. In addition, the pest or weed control at 200 ppm with Fusarium culmorum [6] is ≥ 80%.

With `CC(C#N)(Cc1ccccc1)NC(=O)c1cnc2c(F)cccc2c1` (stereo not drawn) [Compound E-10, N-(1-cyano-1-methyl-2-phenyl-ethyl)-8-fluoro-quinoline-3-carboxamide], the inhibition of growth at 200 ppm (in series [1]; in the series with Gaeumannomyces graminis; in the series with Fusarium culmorum [3]) was ≥ 80% in each case. In addition, the pest or weed control at 200 ppm with Fusarium culmorum [6] was ≥ 80%.

Take `Cc1ccc(CC(C)(CC(C)C)NC(=O)c2cnc3c(F)cccc3c2)cc1` (stereo not drawn) [Compound E-31, N-[1,3-dimethyl-1-(p-tolylmethyl)butyl]-8-fluoro-quinoline-3-carboxamide]: the melting point was in the range of 116 to 118 °C. The inhibition of growth at 200 ppm in series [4] was ≥ 80%. In addition, the inhibition of growth at 200 ppm in series [5] was ≥ 80%. Also, the inhibition of growth at 200 ppm in series [1] is ≥ 80%. For the same compound, in series [2], the inhibition of growth at 200 ppm was ≥ 80%. In addition, in the series on Fusarium culmorum [3], the inhibition of growth at 200 ppm is ≥ 80%.
